From patent US9522930B2, “Chartreusin analogues” (Leibniz-Institut Für Naturstoff-Forschung Und …, priority 2012, dated 2016) come the findings set out here.

The test system of data set [1] is Mycobacterium vaccae 10670. The data set is described as follows: Antimicrobial activity (MIC), test strain Mycobacterium vaccae 10670. In kind it is cell-based. The text has this:
Antimicrobial (MIC value [μM]), cytotoxic (CC50 [μM] for HeLa) and antiproliferative (GI50 [μM] for HUVEC, K-562, HT-29 and MEL-HO) activities of chartreusin and its derivatives. Test strain: Mycobacterium vaccae 10670.

Data set [2] deals with human umbilical vein endothelial cells HUVEC (ATCC CRL-1730). The data set is described as follows: Growth inhibition (antiproliferative effect) of HUVEC. In kind it is cell-based. Particulars: read-out: antiproliferative GI50, HUVEC.
Description: (§2) Compounds were assayed against human umbilical vein endothelial cells HUVEC (ATCC CRL-1730) and human chronic myeloid leukemia cells K-562 (DSM ACC 10) for their antiproliferative effects (GI50) and against human cervix carcinoma cells HeLa (DSM ACC 57) for their cytotoxic effects (CC50) as previously described (Scherlach, K., Partida-Martinez, L. P., Dahse, H. M. & Hertweck, C. Antimitotic rhizoxin derivatives from a cultured bacterial endosymbiont of the rice pathogenic fungus Rhizopus microsporus. Journal of the American Chemical Society 128, 11529-11536 (2006)).
The test system of data set [3] is human chronic myeloid leukemia cells K-562 (DSM ACC 10). The data set is described as follows: Growth inhibition (antiproliferative effect) of K-562. Type of data set: cell-based.
Description: as §2
A short description of data set [4]: Cytotoxicity against HeLa. The settings on record: human, HeLa cells (human cervix carcinoma, DSM ACC 57).
Description: as §2
Data set [5] relates to human HT-29 colon adenocarcinoma cells (ACC 299). The data set is described as follows: Growth inhibition of HT-29 in the presence or absence of light. In kind it is cell-based. As to the method:
(§1) The human HT-29 colon adenocarcinoma cells (ACC 299) and the human MEL-HO (ACC 62) melanoma cells were grown as previously described (Ueberschaar, N.; Dahse, H.-M.; Bretschneider, T.; Hertweck, C. Angew. Chem. Int. Ed. 2013, 52, 6185-6189).

The test system of data set [6] is human MEL-HO (ACC 62) melanoma cells. The data set is described as follows: Growth inhibition of MEL-HO in the presence or absence of light. In kind it is cell-based. As for the experimental part: as §1
The subject of data set [7] is methicillin-resistant Staphylococcus aureus (MRSA). The data set is described as follows: Antibiotic activity against MRSA. Type of data set: cell-based.
Data set [8] is described as follows: in vitro. The settings on record: human.
Description: as §2
Data set [9] relates to human cervix carcinoma cells HeLa (DSM ACC 57). The data set is described as follows: Cytotoxicity against HeLa. The settings on record: for CC50: read-out: cytotoxic CC50, HeLa, HeLa.
Description: as §2
Setting [10] is: Mycolicibacterium vaccae, Test strain: Mycobacterium vaccae 10670, read-out: Antimicrobial MIC value, Mycobacterium vaccae.
[11] abbreviates: Homo sapiens, K562; read-out: antiproliferative GI50, K-562.
The mark [12] stands for this setting: Homo sapiens, K562, read-out: antiproliferative GI50, K-562.
The mark [13] stands for this setting: Homo sapiens, HT-29, 8 h, read-out: antiproliferative GI50, HT-29, 420 nm, 3 × 8 h, HT-29, 420 nm, 3 × 8 h.
The mark [14] stands for this setting: Homo sapiens, HT-29, read-out: GI50 with light, HT-29, HT-29, with light (blue LED).
[15] abbreviates: Homo sapiens, HT-29, read-out: GI50 without light, HT-29, HT-29, without light (absence of light).
The mark [16] stands for this setting: Homo sapiens, HT-29, read-out: antiproliferative GI50, HT-29, w/o light, HT-29, w/o light.
Where [17] appears, read: read-out: GI50 without light, HT-29, HT-29, without light (absence of light).
Setting [18] is: 8 h, read-out: antiproliferative GI50, Mel-HO, 420 nm, 3 × 8 h.
Setting [19] is: read-out: antiproliferative GI50, Mel-HO, w/o light.
Setting [20] is: Mycolicibacterium vaccae, 10670, read-out: Antimicrobial MIC value, Mycobacterium vaccae.
[21] abbreviates: Test strain: Mycobacterium vaccae 10670, read-out: Antimicrobial MIC value, Mycobacterium vaccae.
[22] abbreviates: K-562; read-out: antiproliferative GI50, K-562.

≈ marks a conversion by molar mass, not a printed value. Read-outs that look alike come from different tables or passages of the source.

As a reminder, the MIC is the smallest concentration in the dilution series that meets the test's criterion for growth inhibition.

`COC1[C@@H](O)C(C)O[C@H](OC2[C@H](Oc3cccc4c(O)c5c(=O)oc6ccc(O)c7c(=O)oc(c34)c5c67)OC(C)[C@H](O)[C@@H]2O)[C@@H]1O` (stereo partly shown): the MIC in [1] (setting [10]) was 2.4 µM (≈ 1.54 µg/mL). Further, the GI50 was 35 µM in data set [2] (Homo sapiens) and 4.82 µM in data set [3] (setting [11]). The same compound came in with a CC50 in data set [4] of 25.5 µM.
`C#Cc1cc2oc(=O)c3c(O)c4cccc(O[C@@H]5OC(C)[C@H](O)[C@H](O)C5O[C@H]5OC(C)[C@H](O)C(OC)[C@H]5O)c4c4oc(=O)c(c1)c2c34` (stereo partly shown) [(1→2)Abeo-ethinylchartreusin, (1→2)-Abeo-ethynylchartreusin]: the MIC in data set [1] (setting [10]) was 19.2 µM (≈ 12.5 µg/mL). The GI50 in data set [2] (Homo sapiens) is 7.84 µM; in data set [3] (setting [12]), 3.23 µM; in data set [5] (setting [13]), 1.69 µM; in data set [5] (setting [14]), 1.7 µM; in [5] (setting [15]), 7 to 9.4 µM; in [5] (setting [16]) it was 8.61 µM. Also, the GI50 in data set [5] (setting [17]) turned out to be 8.6 µM; in [6] (setting [18]) it was 1.38 µM; in data set [6] (setting [19]), 2 µM. The “activity higher in the presence of light, HT-29” value in data set [5] (HT-29, with light vs without light) is recorded as 5 fold. Moreover, the “antibiotic activity against MRSA relative to chartreusin and ciprofloxacin” value in data set [7] was “as active as the natural product and are even more potent than the reference antibiotic ciprofloxacin”. In data set [8], this compound registered a CC50 of 13.4 µM.
In the case of `COC1[C@@H](O)C(C)O[C@H](OC2[C@H](Oc3cccc4c(O)c5c(=O)oc6cc(Br)cc7c(=O)oc(c34)c5c67)OC(C)[C@H](O)[C@@H]2O)[C@@H]1O` (stereo partly shown) [(1→2)Abeobromchartreusin, (1→2)-Abeo-bromochartreusin], the MIC in data set [1] (setting [10]) came to 17.7 µM (≈ 12.5 µg/mL). In addition, the results for the GI50 in [2] (Homo sapiens) and in [3] (setting [11]) were 25.1 µM and 8.65 µM, respectively. For the same compound, the CC50 in data set [4] worked out at 26.1 µM.
The corresponding values for `COC1[C@@H](O)C(C)O[C@H](OC2[C@H](Oc3cccc4c(O)c5c(=O)oc6cc(C)cc7c(=O)oc(c34)c5c67)OC(C)[C@H](O)[C@@H]2O)[C@@H]1O` (stereo partly shown) [(1→2)Abeochartreusin, (1→2)-Abeo-chartreusin] are 4.87 µM (≈ 3.12 µg/mL), 5.78 µM, 2.03 µM and 14.2 µM.
The matching figures for `CCc1cc2oc(=O)c3c(O)c4cccc(O[C@@H]5OC(C)[C@H](O)[C@H](O)C5O[C@H]5OC(C)[C@H](O)C(OC)[C@H]5O)c4c4oc(=O)c(c1)c2c34` (stereo partly shown) [(1→2)Abeohomochartreusin, (1→2)-Abeo-homochartreusin]: 19.1 µM (≈ 12.5 µg/mL), 26.6 µM, 11.6 µM and 58.1 µM.
Take `C=Cc1cc2oc(=O)c3c(O)c4cccc(O[C@@H]5OC(C)[C@H](O)[C@H](O)C5O[C@H]5OC(C)[C@H](O)C(OC)[C@H]5O)c4c4oc(=O)c(c1)c2c34` (stereo partly shown) [(1→2)Abeovinylchartreusin, (1→2)-Abeo-vinylchartreusin]: the MIC in data set [1] (setting [10]) stood at 19.2 µM (≈ 12.5 µg/mL). Further, the GI50 is 16.9 µM in data set [2] (Homo sapiens); 4.9 µM in data set [3] (setting [12]); 3.06 µM in [5] (setting [13]); 3.1 µM in data set [5] (setting [14]); 7 to 9.4 µM in [5] (setting [15]); 9.35 µM in data set [5] (setting [16]). Moreover, the figures for the GI50 in data set [5] (setting [17]), in data set [6] (setting [18]) and in data set [6] (setting [19]) were 9.4 µM, 0.48 µM and 1.03 µM, respectively. Further, the CC50 in data set [8] came to 33.7 µM.
With `O=C(Oc1c2cccc(OC(=O)N3CCC(N4CCCCC4)CC3)c2c2oc(=O)c3c(Br)ccc4oc(=O)c1c2c43)N1CCC(N2CCCCC2)CC1` [Bromchartarin-1,10 bis-1,4′-bipiperidine-1′-carboxylate], in data set [1] (setting [20]), the MIC is more than 100 µM. Also, the results for the GI50 in [2] (Homo sapiens) and in data set [3] (setting [11]) were 10 µM and 9.27 µM, respectively. In data set [4], this compound had a CC50 of 20.2 µM.
For `COC1[C@@H](O)C(C)O[C@H](OC2[C@H](Oc3cccc4c(O)c5c(=O)oc6ccc(Br)c7c(=O)oc(c34)c5c67)OC(C)[C@H](O)[C@@H]2O)[C@@H]1O` (stereo partly shown) [Bromchartreusin, 1-Bromochartreusin], the MIC in data set [1] (setting [10]) is 8.9 µM (≈ 6.28 µg/mL). Further, the GI50 was determined as 65.8 µM in [2] (Homo sapiens) and 8.79 µM in data set [3] (setting [11]). This compound showed a CC50 in [4] of 48.2 µM.
Take `Cc1ccc2oc(=O)c3c(OC(=O)N4CCC(N5CCCCC5)CC4)c4cccc(OC(=O)N5CCC(N6CCCCC6)CC5)c4c4oc(=O)c1c2c34` [Chartarin-1,10 bis-1,4′-bipiperidine-1′-carboxylate]: in data set [1] (setting [20]), the MIC is more than 100 µM. Besides, the GI50 came to 4.43 µM in [2] (Homo sapiens) and 3.18 µM in data set [3] (setting [11]). In data set [4], the CC50 was found to be 10.1 µM.
Take `C#Cc1ccc2oc(=O)c3c(O)c4cccc(O[C@@H]5OC(C)[C@H](O)[C@H](O)C5O[C@H]5OC(C)[C@H](O)C(OC)[C@H]5O)c4c4oc(=O)c1c2c34` (stereo partly shown) [Ethinylchartreusin, Ethynylchartreusin]: the MIC in data set [1] (setting [10]) worked out at 19.2 µM (≈ 12.5 µg/mL). Moreover, the GI50 in data set [2] (Homo sapiens) is more than 77 µM; in [3] (setting [11]) it was 64.1 µM; in data set [5] (Homo sapiens, HT-29, 8 h, HT-29, 420 nm, 3 × 8 h, read-out: antiproliferative GI50, HT-29, 420 nm, 3 × 8 h) it was 26.9 µM; in [5] (Homo sapiens, HT-29, HT-29, w/o light, read-out: antiproliferative GI50, HT-29, w/o light), 33.2 µM. The CC50 in data set [4] was more than 77 µM.
With `CCc1ccc2oc(=O)c3c(O)c4cccc(O[C@@H]5OC(C)[C@H](O)C(O)C5O[C@H]5OC(C)[C@H](O)C(OC)C5O)c4c4oc(=O)c1c2c34` (stereo partly shown) [Homochartreusin], in data set [1] (setting [10]), the MIC is 9.6 µM (≈ 6.28 µg/mL). Also, the results for the GI50 in data set [2] (Homo sapiens) and in data set [3] (setting [11]) were 7.18 µM and 2.14 µM, respectively. For the same compound, the CC50 in data set [4] was 23.1 µM. For the same compound, the “selectivity (GI50 HUVEC versus cytotoxic activity HeLa)” value in data set [9] (compared with Chartreusin, HUVEC GI50 similarly low, HeLa CC50 different) is on record as “higher selectivity”.
For `COc1ccc2oc(=O)c3c(O)c4cccc(O[C@@H]5OC(C)[C@H](O)[C@H](O)C5O[C@H]5OC(C)[C@H](O)C(OC)[C@H]5O)c4c4oc(=O)c1c2c34` (stereo partly shown) [Methoxychartreusin], in data set [1] (setting [10]), the MIC worked out at 76 µM (≈ 49.9 µg/mL). The GI50 in data set [2] (Homo sapiens) and in data set [3] (setting [11]) was more than 76 µM throughout. This compound displayed a CC50 in [4] of more than 76 µM.
`COC1[C@@H](O)C(C)O[C@H](OC2[C@H](Oc3cccc4c(O)c5c(=O)oc6cccc7c(=O)oc(c34)c5c67)OC(C)[C@H](O)[C@@H]2O)[C@@H]1O` (stereo partly shown) [Norchartreusin]: the MIC in data set [1] (setting [10]) amounted to 2.5 µM (≈ 1.57 µg/mL). Moreover, the GI50 stood at 79.8 µM in data set [2] (Homo sapiens) and 31.6 µM in data set [3] (setting [11]). In data set [4], the CC50 was found to be 70.7 µM.
Take “Norchartarin-1,10 bis-1,4′-bipiperidine-1′-carboxylate”: the MIC in data set [1] (setting [21]) is reported as more than 100 µM. Also, the GI50 in data set [2] stood at 52.3 µM; in [3] (setting [22]), 52.2 µM. The CC50 in data set [9] was more than 71 µM.
The corresponding values for “vinylchartarin-1,10 bis-1,4′-bipiperidine-1′-carboxylate” are more than 100 µM, more than 68 µM, more than 68 µM and more than 68 µM.
